Assay [1] has as its system C. novyi-NT therapy-induced toxicity in mice bearing large subcutaneous CT26 tumors. Put plainly: C. novyi-NT therapy of large subcutaneous CT26 tumors (therapy-induced toxicity). The format is in vivo, mouse (BALB/c). The following applies: for mice surviving: CT26 tumor-bearing BALB/c mice, 12×10^6 spores intratumorally, ANP (osmotic pump 12 μg/day) or metyrosine (IP pre-treatment) given with parental C. novyi-NT. The method, then:
ANP concentrations in the supernatant of ANP-C. novyi-NT culture and in mouse plasma were measured by an Elisa kit from Ray Biotech (EIAR-ANP-1) that recognizes both human and mouse ANP. ANP in the supernatant of ANP-C. novyi-NT culture were shown biological activities as described elsewhere (Lofton et al., 1990 Biochem. Biophys. Res. Comm., 172:793-9). Briefly, bacterial supernatants were applied to cultured bovine aortic endothelial cells (BAOEC, Cell Applications Inc.) for 3 minutes. cGMP concentrations were then measured in BAOEC lysates by the Direct cGMP Elisa Kit from Enzo following the manufacture's instruction.
The colon cancer cell line CT26 was injected subcutaneously into the right flank of six to eight week old female Balb/C mice as described elsewhere (Qiao et al., 2011 Oncotarget, 2:59-68). Tumor sizes were measured with a caliper and calculated as ½*L*W*H as described elsewhere (Tomayko et al., 1989 Can. Chemother. Pharmacol., 24:148-54). When tumors reached 600-900 mm^3 after about two weeks, 12×10^6 spores of C. novyi-NT or ANP-C. novyi-NT at 3×10^6/μl were injected intratumorally into 4 central parts of the tumor with a 32 G Hamilton syringe needle. The bacteria typical germinated in the tumors within 24 hours, turning them necrotic. Hydration of the mice was supported by daily subcutaneous injections of […] saline. Human ANP (Sigma) was dissolved in saline, loaded in mini-osmotic pumps (ALZET) with a release rate of 12 μg/day and implanted subcutaneously in the back of mice 12 hours before the spore injection. Pumps loaded with saline served as controls. Metyrosine was dissolved in PBS and injected IP at 60 mg/kg/day for three days before the C. novyi injection to deplete catecholamines in storage. Two hours after the spore injection, 60 mg/kg of metyrosine was injected intraperitoneally (IP). For each of the next three days, IP injections of metyrosine at 30 mg/kg were administered. Control groups were injected with PBS at the same time points.
Blood samples were collected into tubes containing 5 mM EDTA and 4 mM sodium metabisulfite after puncturing the facial vein or (terminally) by cardiac puncture. Subsequently, the samples were centrifuged and the plasmas were stored at −80° C. prior to analysis. Catecholamines (dopamine, norepinephrine and epinephrine) were measured using the 3-CAT Research ELISA kit from Labor Diagnostika Nord GmbH/Rocky Mountain Diagnostics. Cytokines were measured using Luminex assays based on Millipore Mouse and Human Cytokine/Chemokine panels.
ANP concentrations in the supernatant of ANP-C. novyi-642 NT culture and in mouse plasma were measured with an Elisa kit from Ray Biotech (EIAR-ANP-1) that recognizes both human and mouse ANP. […] Briefly, bacterial supernatants were applied to cultured bovine aortic endothelial cells (BAOEC, Cell Applications Inc.) for 3 minutes. cGMP concentrations were then measured in BAOEC lysates by the Direct cGMP Elisa Kit from Enzo following the manufacture's instruction.
The colon cancer cell line CT26 was injected subcutaneously into the right flank of six to eight weeks old female Balb/C mice as described elsewhere (see, e.g., Qiao et al. 2011 Oncotarget 2:59-68). Tumor sizes were measured with a caliper and calculated as ½*L*W*H as described elsewhere (see, e.g., Tomayko et al. 1989 Cancer Chemother Pharmacol 24:148-154). When tumors reached 600-900 mm^3 after about two weeks, 12×10^6 spores of C. novyi-NT or ANP-C. novyi-NT at 3×10^6/μl were injected intratumorally into 4 central parts of the tumor with a 32 G Hamilton syringe needle. The bacteria typical germinated in the tumors within 24 hours, turning them necrotic. Hydration of the mice was supported by daily subcutaneous injections of 500 μl saline. Human ANP (Sigma) was dissolved in saline, loaded in mini-osmotic pumps (ALZET) with a release rate of 12 μg/day and implanted subcutaneously in the back of mice 12 hours before the spore injection. Pumps loaded with saline served as controls. […]

Assay [2] concerns mouse peritoneal macrophages. Put plainly: Peritoneal macrophage catecholamine and cytokine production. It is filed as cell-based. As to conditions: for cytokine release: ANP 5 μg/ml or metyrosine 2 mM.
Method: Isolation of elicited macrophages from mouse peritoneum followed previously described procedures with minor modifications (Zhang et al., “The isolation and characterization of murine macrophages,” Curr Protoc Immunol Chapter 14, Unit 14.1 (November, 2008)). Four days prior to the harvest, 1 ml of 3% Brewer's thioglycollate medium (BD) was injected IP in female 2-3 months old BALB/c mice. Mice were euthanized by cervical dislocation and the skin of the belly was cut open without penetrating the muscle layer. Using a syringe with a 22 G needle, 5 ml of cold PBS containing 5 mM EDTA was injected carefully into the peritoneal cavity. After massaging gently for 1-2 minutes, a 1-ml syringe without needle was used to extract the peritoneal contents containing residential macrophages. Cells were centrifuged at 400 g for 10 minutes at 4° C., resuspended in DMEM/F12 medium supplemented with 1% FBS and antibiotics and distributed in 48-well plates at a concentration of 0.5×10^6 cells/well. After incubation at 37° C. for 2 hours, cells were rinsed three times with 0.5 ml media and then 250 μl of media was added to each well. […] For stimulation, the cells were incubated for 24 hours with LPS at 50 μg/ml. […] To stimulate macrophages, they were exposed to epinephrine at 15 ng/ml for 24 hours at 37° C. After the incubation, supernatants were collected from the wells and mixed with 5 mM EDTA and 4 mM sodium metabisulfite for preservation of catecholamines and stored at −80° C. […] Thus, any epinephrine identified in the media must have been secreted by cells in the last 24 hours prior to harvesting the media.
Isolation of elicited macrophages from mouse peritoneum followed previously described procedures with minor modifications66. Four days prior to the harvest, 1 ml of 3% Brewer's thioglycollate medium (BD) was injected IP in female 2-3 months old BALB/c mice or 4-6 weeks old conditional TH knockout mice. Mice were euthanized by cervical dislocation and the skin of the belly was cut open without penetrating the muscle layer. Using a syringe with a 25 G needle, 5 ml of cold PBS containing 5 mM EDTA was injected carefully into the peritoneal cavity. After massaging gently for 1-2 minutes, a 1-ml syringe without needle was used to extract the peritoneal contents containing residential macrophages. Cells were centrifuged at 400 g for 10 minutes at 4° C., resuspended in DMEM/F12 medium supplemented with 1% FBS and antibiotics and distributed in 48-well plates at a concentration of 0.5×10^6 cells/well. After incubation at 37° C. for 2 hours, cells were rinsed three times with 0.5 ml media and then 250 μl of media was added to each well. […] For stimulation, the cells were incubated for 24 hours with LPS at 50 μg/ml. […] To stimulate macrophages, they were exposed to epinephrine at 15 ng/ml for 24 hours at 37° C. After the incubation, supernatants were collected from the wells and mixed with 5 mM EDTA and 4 mM sodium metabisulfite for preservation of catecholamines and stored at −80° C. […] Thus, any epinephrine identified in the media must have been secreted by cells in the last 24 hours prior to harvesting the media.
For assay [3], the system named is Raji-bearing NSGS mice with low tumour burden treated with hCART19. The assay can be described thus: hCART19 treatment of Raji-bearing NSGS mice, low tumour burden. The format is in vivo, mouse (NSGS). The following applies: for hCART19-induced catecholamines and human and mouse cytokines: metyrosine IP or ANP by osmotic pump; for prevention of CRS (mouse cytokines IL-6, KC, MIP-2): with hCART19. An excerpt:
Six to eight weeks old female NSG-SGM3 (NSGS) mice (NOD.Cg-Prkdcscid Il2rgtm1WjlTg (CMV-IL3, CSF2, KITLG) 1Eav/MloySzJ, Stock #013062) were purchased from the Jackson Laboratory. Raji cells were transfected with a luciferase construct via lentivirus to create Raji-luc cells. NSGS is a triple transgenic strain expressing human IL3, GM-CSF and SCF combine the features of the highly immunodeficient NOD scid gamma (NSG) mouse. One day before the injection of Raji cells, mice were irradiated at a dose of 2 Gy in a CIXD Xstahl device. In high tumor burden experiments in FIG. 5, 10^6 Raji-luc cells were injected IV via tail vein. Six days later, tumor loads were assessed using a Xenogen instrument and 15×10^6 hCART19 cells or untransduced T-cells were injected IV. In low tumor burden experiments in FIG. 6, 2×10^5 Raji-luc cells were injected IV via tail vein. Four days later, tumor loads were assessed using a Xenogen instrument and 15×10^6 hCART19 cells were injected IV. Metyrosine was injected IP at 60 mg/kg/day for three days before the hCART19 injection. On the day of CART19 injection, a fourth dose of 60 mg/kg was given IP and the mice were subsequently injected four more times at daily intervals at 30 mg/kg.

The test system of assay [4] is human U937-derived macrophage cells. The assay can be described thus: U937 macrophage catecholamine and cytokine production. The format is cell-based. As to conditions: LPS 1 μg/ml and/or epinephrine 15 ng/ml, metyrosine 2 mM. As to the method:
Human U937 cells were cultured in RPMI 1640 media with 5% FBS and antibiotics, and were differentiated to M1 macrophage-like cells by incubating with 20 nM phorbol 12-myristate 13-acetate (PMA, Sigma) for 24 hours and further culturing in RPMI 1640 media with 5% FBS and antibiotics for another 72 hours. The experiments with U937 were set up in the same way as described above with peritoneal macrophages. […] Cells were incubated for 24 hours with LPS at 1 μg/ml.

The mark [5] stands for this setting: plasma, 36 hours after spore injection, versus parental C. novyi-NT alone.
The mark [6] stands for this setting: LPS 50 μg/ml, 24 hours, pre-incubation 10 minutes with ANP 5 μg/ml or metyrosine 2 mM.
Setting [7] is: LPS, epinephrine or the combination of both, metyrosine 2 mM.

Values joined by “and” are separate entries in the source; they are usually repeats but may differ in a detail not shown here. Identical values can stand only once. “Also recorded” adds a separate entry of the source.

For `CC[C@H](C)[C@@H]1NC(=O)[C@H](CCCNC(=N)N)NC(=O)[C@H](CC(=O)O)NC(=O)[C@H](CCSC)NC(=O)[C@H](CCCNC(=N)N)NC(=O)CNC(=O)CNC(=O)[C@H](Cc2ccccc2)NC(=O)[C@@H](NC(=O)[C@H](CO)NC(=O)[C@H](CO)NC(=O)[C@H](CCCNC(=N)N)NC(=O)[C@H](CCCNC(=N)N)NC(=O)[C@H](CC(C)C)NC(=O)[C@@H](N)CO)CSSC[C@@H](C(=O)N[C@@H](CC(N)=O)C(=O)N[C@@H](CO)C(=O)N[C@@H](Cc2ccccc2)C(=O)N[C@@H](CCCNC(=N)N)C(=O)N[C@@H](Cc2ccc(O)cc2)C(=O)O)NC(=O)CNC(=O)[C@H](CC(C)C)NC(=O)CNC(=O)[C@H](CO)NC(=O)[C@H](CCC(N)=O)NC(=O)[C@H](C)NC(=O)CNC1=O` [ANP, atrial natriuretic peptide], in assay [1], the mice surviving was ~75% and ~73%. In addition, the “robust but not curative response, of surviving mice” value in assay [1] (CT26 tumors, surviving mice) was 20% and 23%. Besides, the “tissue damage and leukocyte/myeloid cell infiltration in lungs, liver, spleen” value in assay [1] (histology, versus parental C. novyi-NT) was “major reductions”. Besides, in assay [1] (setting [5]), the circulating catecholamines result is “major reductions”. Moreover, the cytokine release result in assay [2] (LPS 50 μg/ml, 24 hours) is reported as “reduction in the cytokine levels”. Besides, the catecholamine production result is recorded as “reduce the production of all three major catecholamines; also recorded: suppress the increased production; also recorded: effectively blocked” in assay [2] (setting [6]) and “inhibited this production” in assay [2] (epinephrine 15 ng/ml stimulated, ANP pre-treatment). Moreover, the “catecholamine and cytokine (IL-6, TNF-α, MIP-2, KC) production” value in assay [2] (epinephrine alone 15 ng/ml) is reported as “also suppressed”. For the same compound, the amplified inflammatory response result in assay [2] (epinephrine in combination with LPS) is reported as “inhibited”. For the same compound, the “hCART19-induced catecholamines and human and mouse cytokines” value in assay [3] (low tumour burden) was “abrogated”. Besides, in assay [3], the “prevention of CRS (mouse cytokines IL-6, KC, MIP-2)” value was “effective at preventing CRS”.
`C[C@](N)(Cc1ccc(O)cc1)C(=O)O` [metyrosine, α-methyl-tyrosine]: the mice surviving in assay [1] was 85%. For the same compound, in assay [1] (setting [5]), the circulating catecholamines entry is on record as “substantially reduced”; the “circulating inflammatory cytokines and chemokines” value was “substantially reduced”. Moreover, in assay [2] (LPS 50 μg/ml, 24 hours), the cytokine release entry was “similarly inhibited”. For the same compound, the catecholamine production entry in assay [2] (setting [6]) is recorded as “greatly reduced; also recorded: effectively blocked”. Also, in assay [2] (setting [7]), the catecholamines produced result is given as “greatly reduced” and the cytokines released result was “diminished”. For the same compound, in assay [4], the catecholamines and cytokines result is on record as “Comparable results were obtained”. In assay [3] (hCART19 plus metyrosine), the “animals with tumors eradicated (BLI below 10^6), day 6” value is 6 out of 10 and the “animals with tumors eradicated (BLI below 10^6), day 19” value is listed as 4 out of 10. The “reduction of lymphoma burden within one week versus hCART19 controls” value in assay [3] (hCART19 plus metyrosine, BLI) was “significantly more so”. In assay [3] (low tumour burden), the long-term survival was found to be 40%; the “hCART19-induced catecholamines and human and mouse cytokines” value is listed as “reduced”. The “prevention of CRS (mouse cytokines IL-6, KC, MIP-2)” value in assay [3] is “effective at preventing CRS”.
